Data: paper PMC7480398 (Phytomedicine, 2020)

Legend:
Format in all cases: biochemical
[1] = target: CYP3A4 (Homo sapiens, UniProt P08684); assay: fluorescent probe substrate; conditions: liver microsomes
[2] = target: T1, PTGS1 (Ovis aries, UniProt P05979); assay: colorimetric enzyme activity assay
T1 sequence (P05979 25-600): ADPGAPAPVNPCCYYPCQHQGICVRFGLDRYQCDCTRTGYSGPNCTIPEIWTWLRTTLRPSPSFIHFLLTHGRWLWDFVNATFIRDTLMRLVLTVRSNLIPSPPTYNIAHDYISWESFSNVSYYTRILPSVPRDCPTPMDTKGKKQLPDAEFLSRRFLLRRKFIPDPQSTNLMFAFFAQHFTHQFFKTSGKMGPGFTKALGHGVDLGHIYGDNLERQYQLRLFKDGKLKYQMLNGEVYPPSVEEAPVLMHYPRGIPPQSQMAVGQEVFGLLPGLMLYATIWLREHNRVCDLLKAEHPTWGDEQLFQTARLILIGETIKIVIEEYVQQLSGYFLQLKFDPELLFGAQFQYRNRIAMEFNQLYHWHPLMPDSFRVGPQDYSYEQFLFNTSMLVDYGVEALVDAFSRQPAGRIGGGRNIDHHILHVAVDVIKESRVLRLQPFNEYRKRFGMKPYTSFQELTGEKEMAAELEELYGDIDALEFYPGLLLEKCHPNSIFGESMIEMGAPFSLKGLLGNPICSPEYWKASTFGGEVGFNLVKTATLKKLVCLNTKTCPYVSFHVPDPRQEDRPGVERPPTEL

[3] = target: T2, CYP1A1 (Homo sapiens, UniProt P04798)
T2 sequence (P04798 1-512): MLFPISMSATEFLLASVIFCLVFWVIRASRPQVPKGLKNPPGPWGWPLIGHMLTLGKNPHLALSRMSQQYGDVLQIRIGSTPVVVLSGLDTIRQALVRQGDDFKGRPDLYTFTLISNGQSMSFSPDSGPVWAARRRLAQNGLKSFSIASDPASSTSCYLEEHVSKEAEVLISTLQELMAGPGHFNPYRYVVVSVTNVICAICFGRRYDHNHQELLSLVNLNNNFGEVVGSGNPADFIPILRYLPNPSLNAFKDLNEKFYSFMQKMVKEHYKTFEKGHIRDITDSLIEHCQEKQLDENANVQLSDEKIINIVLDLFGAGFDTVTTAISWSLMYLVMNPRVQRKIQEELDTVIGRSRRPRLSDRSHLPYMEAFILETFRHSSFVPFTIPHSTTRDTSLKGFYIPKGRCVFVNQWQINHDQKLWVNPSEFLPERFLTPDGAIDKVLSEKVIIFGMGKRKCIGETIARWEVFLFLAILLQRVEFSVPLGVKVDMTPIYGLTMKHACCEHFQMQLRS

Chain of CYP3A4 (P08684 2-503): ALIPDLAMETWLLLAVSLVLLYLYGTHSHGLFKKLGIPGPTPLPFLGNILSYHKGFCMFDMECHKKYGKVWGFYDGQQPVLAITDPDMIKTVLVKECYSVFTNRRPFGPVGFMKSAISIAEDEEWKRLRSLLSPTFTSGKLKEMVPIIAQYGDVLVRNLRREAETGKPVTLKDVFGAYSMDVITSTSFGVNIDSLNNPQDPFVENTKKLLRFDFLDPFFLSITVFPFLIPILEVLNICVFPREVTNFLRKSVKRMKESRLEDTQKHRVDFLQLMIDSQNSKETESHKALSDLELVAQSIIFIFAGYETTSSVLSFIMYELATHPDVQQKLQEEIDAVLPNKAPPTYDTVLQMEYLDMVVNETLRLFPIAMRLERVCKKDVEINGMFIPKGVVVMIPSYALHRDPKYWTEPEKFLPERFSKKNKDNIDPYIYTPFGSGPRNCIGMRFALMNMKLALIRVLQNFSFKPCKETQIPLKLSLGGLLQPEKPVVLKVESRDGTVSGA

With `CC(=O)O[C@@H](C[C@@H](C)C1=C2C[C@H](O)[C@H]3[C@@]4(C)CCC(=O)C(C)(C)[C@@H]4CC[C@]3(C)[C@@]2(C)CC1)[C@H]1OC1(C)C` [alisol B 23-acetate] the IC50 [1] was 450 ± 30 nM.
For `O=C(O)[C@H]1O[C@@H](Oc2cc3oc(-c4ccccc4)cc(=O)c3c(O)c2O)[C@H](O)[C@@H](O)[C@@H]1O` [baicalin], the “colorimetric enzyme activity assay (590 nm)” value [2] was “Baicalin inhibited pure PTGS1 and AA induced platelet aggregation at the concentration as shown”.
Work on `O=c1c(O[C@@H]2O[C@H](CO)[C@H](O)[C@H](O)[C@H]2O)c(-c2ccc(O)c(O)c2)oc2cc(O)cc(O)c12` [hyperoside] yielded an IC50 [3] of 105 ± 18.9 µM.
